Measurements taken from PMC7000521, “Hazard Characterization of Synthetic Cathinones Using Viability, Monoamine Reuptake, and Neuronal Activity Assays” (Frontiers in Neuroscience, 2020).
pIC50: −log10 of the molar value. Where two headings read alike, the source gives them in different places.

System: rat primary cortical cultures
Experiment: MEA recordings of spontaneous neuronal network activity
Assay type: cell-based
Settings: for pIC50: Rattus norvegicus, value [CI]; for Increased potency to inhibit neuronal activity (MSR, MBR, and MNBR) compared to cathinones lacking the lengthened alkyl chain: acute and prolonged exposure
Method: Rat pups born of timed-pregnant Wistar rats (Envigo, Horst, Netherlands) were sacrificed on postnatal day 0–1 to prepare cortical cultures grown on MEA plates as described previously ([Zwartsen et al., 2018], [2019]). Briefly, a 50 μL drop of cell suspension was added to each well (1 × 10^5 cells/well) of a 48-well MEA plate (Axion BioSystems Inc., Atlanta, GA, United States, M768-GL1-30Pt200) coated with 0.1% polyethyleneimine (PEI). After 2 h, 450 μL dissection medium was added to each well. The day after the isolation (day in vitro 1; DIV1), 450 μL/well dissection medium was replaced with 450 μL/well glutamate medium. At DIV4, 450 μL/well glutamate medium was replaced with 450 μL/well FBS medium (for medium supplements see [Zwartsen et al., 2018], [2019]). Cultures were kept in FBS medium at 37°C, 5% CO2/95% air atmosphere until use at DIV9-10.
Microelectrode array recordings were performed as described in [Zwartsen et al. (2019)]. In short, neuronal activity was measured using a Maestro 768-channel amplifier (Axion BioSystems Inc., Atlanta, GA, United States). Baseline spontaneous neuronal activity was recorded for 30 min at 37°C, after which wells were exposed to selected synthetic cathinones under sterile conditions. Next, neuronal activity was determined during a 30 min “acute exposure” recording. […] Next, exposure medium was replaced with fresh FBS medium and the plate was incubated for 19 h at 37°C, until the 30 min “washout” recording, i.e., 24 h after the start of the exposure.
Effects of 3-MMC, 4-MMC, 4-MEC, pentedrone, 3-MMCinternet, and 4-MECinternet were tested at 1–1000 μM (final concentration). At the day of exposure, stocks and dilutions were freshly made in NB-A FBS medium (for medium supplements see [Zwartsen et al., 2019]). Data on methylone, α-PVP, and MDPV exposure have been published previously in [Zwartsen et al. (2019)]. For each experimental condition, primary cultures from two to three different isolations were used and tested in four to five plates (Nplates). The number of wells (nwells) represents the number of replicates per condition.
Microelectrode array data were analyzed as described in [Zwartsen et al. (2019)]. In short, parameters of interest after acute exposure were expressed as a percentage of the parameters prior to exposure to obtain a treatment ratio for each well (paired comparison; parameterexposure/parameterbaseline as % of control wells). The parameters after prolonged exposure and washout were also expressed as a percentage of the baseline parameters. Next, treatment ratios were grouped per parameter, condition, drug [e.g., mean spike rate (MSR) 10 μM 3-MMC] and exposure scenario (acute, prolonged, or washout).
Outliers (>mean ± 2×SD) for MSR (5.0%) were used to exclude wells on all parameters. Outliers for mean burst rate (MBR; 2.6%) and mean network burst rate (MNBR; 1.4%) were used to exclude wells on specific parameters (burst, network burst, and synchronicity parameters, or network burst and synchronicity parameters, respectively). Finally, the acute, prolonged, and washout control treatment ratios were set to 100% and treatment ratios of exposed wells were normalized to the average treatment ratio of medium control wells of the corresponding parameter and exposure scenario. Treatment ratios of exposed wells were averaged per parameter (e.g., MSR), condition (e.g., 100 μM), drug (e.g., methylone), and exposure scenario (e.g., acute exposure) and used for further statistical analyses [see [Zwartsen et al. (2019)] for more details on criteria, parameters, and exposure scenarios]. Neuronal activity (as % of control) is expressed as mean ± SEM of nwells from Nplates. As the spike, burst, and network burst rates were among the most sensitive parameters, these parameters are presented in the manuscript. Additional parameters are presented in Supplementary Figure 2.
Concentration–response curves were made for transporter, MEA, and cell viability assays. […]

[1] = 0.5 h, acute exposure 30 min, read-out: Neuronal activity IC50, mean burst rate (MBR), acute
[2] = 0.5 h, acute exposure 30 min, read-out: Neuronal activity IC50, mean network burst rate (MNBR), acute
[3] = 0.5 h, acute exposure 30 min, read-out: Neuronal activity IC50, mean spike rate (MSR), acute
[4] = 19 h washout, 24 h after start of exposure, read-out: Neuronal activity IC50, mean burst rate (MBR), recovery
[5] = 19 h washout, 24 h after start of exposure, read-out: Neuronal activity IC50, mean network burst rate (MNBR), recovery
[6] = 19 h washout, 24 h after start of exposure, read-out: Neuronal activity IC50, mean spike rate (MSR), recovery
[7] = prolonged exposure 4.5 h, read-out: Neuronal activity IC50, mean burst rate (MBR), prolonged
[8] = prolonged exposure 4.5 h, read-out: Neuronal activity IC50, mean network burst rate (MNBR), prolonged
[9] = prolonged exposure 4.5 h, read-out: Neuronal activity IC50, mean spike rate (MSR), prolonged

Row | SMILES | pIC50 [1] | pIC50 [2] | pIC50 [3] | pIC50 [4] | pIC50 [5] | pIC50 [6] | pIC50 [7] | pIC50 [8] | pIC50 [9] | Increased potency to inhibit neuronal activity (MSR, MBR, and MNBR) compared to cathinones lacking the lengthened alkyl chain | Neuronal activity following washout (highest concentration (1000 μM), washout 24 h after start of exposure)
1 | CNC(C)C(=O)c1cccc(C)c1 (centres unmarked) [3-MMC, 2-(methylamino)-1-(3-methylphenyl) propan-1-one] | 4.10 | 4.17 | 4.19 | < 3.00 | < 3.00 | – | – | – | – | – | –
2 | CCNC(C)C(=O)c1ccc(C)cc1 (centres unmarked) [4-MEC, 2-(ethylamino)-1-(4-methylphenyl) propan-1-one] | 4.13 | 4.17 | 4.14 | < 3.00 | < 3.00 | < 3.00 | – | – | – | – | –
3 | CNC(C)C(=O)c1ccc(C)cc1 (centres unmarked) [4-MMC, 2-(methylamino)-1-(4-methylphenyl) propan-1-one] | 3.93 | 3.92 | 4.00 | < 3.00 | < 3.00 | < 3.00 | 3.83 | 3.78 | 3.94 | – | –
4 | CCCC(C(=O)c1ccc2c(c1)OCO2)N1CCCC1 (centres unmarked) [MDPV, 1-(1,3-benzodioxol-5-yl)-2-pyrro lidin-1-ylpentan-1-one] | – | – | – | – | – | – | – | – | – | two to fourfold | –
5 | CCCC(NC)C(=O)c1ccccc1 (centres unmarked) [Pentedrone, 2-(methylamino)-1-phenyl pentan-1-one] | 4.59 | 4.64 | 4.64 | – | – | – | 4.55 | 4.55 | 4.57 | two to fourfold | remained fully inhibited
